This test addresses T1, SdC4H (CYP73A111) with SdCPR (Scoparia dulcis, UniProt U5N2L3).
T1 construct: gene C4H; full-length ORF in pET28b, His-tagged, E. coli BL21(DE3), crude soluble fraction; redox partner recombinant SdCPR (GenBank KF306080) added; with NADPH--cytochrome P450 reductase
Nature of the test: HPLC detection of 4-hydroxylated product. Type of test: biochemical. To be noted: 1 mM trans-cinnamic acid, 2 mM NADPH, recombinant SdCPR, 50 mM phosphate pH 7.4, 30 °C, 30 min.

T1 sequence (U5N2L3 entry or part of it): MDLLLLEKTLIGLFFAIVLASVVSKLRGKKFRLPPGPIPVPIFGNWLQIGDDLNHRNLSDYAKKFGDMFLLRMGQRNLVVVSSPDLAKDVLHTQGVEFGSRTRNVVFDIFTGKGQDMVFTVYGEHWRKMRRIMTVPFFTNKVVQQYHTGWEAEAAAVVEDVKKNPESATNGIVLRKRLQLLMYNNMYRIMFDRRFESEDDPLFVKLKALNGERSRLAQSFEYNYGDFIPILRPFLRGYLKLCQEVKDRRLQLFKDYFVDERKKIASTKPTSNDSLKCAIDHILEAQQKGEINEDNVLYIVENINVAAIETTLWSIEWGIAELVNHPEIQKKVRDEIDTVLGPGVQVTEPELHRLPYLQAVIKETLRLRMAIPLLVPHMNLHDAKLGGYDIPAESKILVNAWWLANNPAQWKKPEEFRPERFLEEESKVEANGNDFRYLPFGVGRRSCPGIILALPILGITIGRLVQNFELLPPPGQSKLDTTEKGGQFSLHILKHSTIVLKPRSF
T1 sequence (U5N352 entry or part of it, further chain): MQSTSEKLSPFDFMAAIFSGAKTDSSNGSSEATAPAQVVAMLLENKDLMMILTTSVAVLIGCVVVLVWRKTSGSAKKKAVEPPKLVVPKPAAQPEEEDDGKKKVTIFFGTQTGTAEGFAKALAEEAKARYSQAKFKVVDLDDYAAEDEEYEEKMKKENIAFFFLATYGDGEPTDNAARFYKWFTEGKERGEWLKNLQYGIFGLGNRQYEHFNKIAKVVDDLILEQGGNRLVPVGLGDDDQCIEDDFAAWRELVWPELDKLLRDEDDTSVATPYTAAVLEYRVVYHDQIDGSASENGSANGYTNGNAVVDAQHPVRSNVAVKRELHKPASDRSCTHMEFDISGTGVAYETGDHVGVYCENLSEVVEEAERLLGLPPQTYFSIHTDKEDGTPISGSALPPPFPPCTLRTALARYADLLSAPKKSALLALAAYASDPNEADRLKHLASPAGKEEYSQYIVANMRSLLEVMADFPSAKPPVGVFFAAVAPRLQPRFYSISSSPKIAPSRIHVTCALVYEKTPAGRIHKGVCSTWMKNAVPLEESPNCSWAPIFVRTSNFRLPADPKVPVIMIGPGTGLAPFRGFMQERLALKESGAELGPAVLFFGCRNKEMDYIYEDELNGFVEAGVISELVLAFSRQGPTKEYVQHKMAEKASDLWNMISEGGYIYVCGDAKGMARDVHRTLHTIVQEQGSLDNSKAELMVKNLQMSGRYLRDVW

Take `O=C(O)/C=C/c1ccccc1` [trans-cinnamic acid]: the “HPLC detection of 4-hydroxylated product” value is on record as “the C4H activity (trans-cinnamic acid was 4-hydroxylated) of recombinant SdC4H was detected by HPLC”.

The values are drawn from publication PMC7052086, “Functional characterization of NADPH-cytochrome P450 reductase and cinnamic acid 4-hydroxylase encoding genes from Scoparia dulcis L” (Botanical Studies, 2020).
